# Read-outs that look alike come from different tables or passages of the source.
# Legend:
# Format in all cases: in vivo
# [1] = system: tobacco budworm (Heliothis virescens); experiment: Test 1: control of tobacco budworm, 96-well microtiter plates with insect diet and eggs
# Description: For evaluating control of tobacco budworm (Heliothis virescens) the test unit consisted of 96-well-microtiter plates containing an insect diet and 15-25 H. virescens eggs.
# The compounds or mixtures were formulated using a solution containing 75% water and 25% DMSO. Different concentrations of formulated compounds or mixtures were sprayed onto the insect diet at 10 μl, using a custom-built micro atomizer, at two replications.
# For experimental mixtures in these tests, identical volumes of both mixing partners at the desired concentrations respectively, were mixed together.
# After application, microtiter plates were incubated at 28±1° C., 80±5% RH for 5 days. Egg and larval mortality were then visually assessed. For the mixture tested the results are listed in Tables 1.1 to 1.7, wherein the * marks synergistic control effect according to Colby's equation.
# [2] = system: yellow fever mosquito (Aedes aegypti); experiment: whole plant or invertebrate
# Description: For evaluating control of yellow fever mosquito (Aedes aegypti) the test unit consisted of 96-well-microtiter plates containing 200 μl of tap water per well and 5-15 freshly hatched A. aegypti larvae.
# The compounds or mixtures were formulated using a solution containing 75% water and 25% DMSO. Different concentrations of formulated compounds or mixtures were sprayed onto the insect diet at 2.5 μl, using a custom-built micro atomizer, at two replications.
# (§1) For experimental mixtures in these tests identical volumes of both mixing partners at the desired concentrations respectively, were mixed together.
# After application, microtiter plates were incubated at 28±1° C., 80±5% RH for 2 days. Larval mortality was then visually assessed. For the mixture tested the results are listed in Table 2.1 to 2.11, wherein the * marks synergistic control effect according to Colby's equation.
# [3] = system: green peach aphid (Myzus persicae); experiment: Test 3: control of green peach aphid through systemic means, artificial diet under membrane; conditions: aphid mortality and fecundity after 3 days
# Excerpt: For evaluating control of green peach aphid (Myzus persicae) through systemic means the test unit consisted of 96-well-microtiter plates containing liquid artificial diet under an artificial membrane.
# Different concentrations of formulated compounds or mixtures were pipetted into the aphid diet, using a custom built pipetter, at two replications.
# as §1
# After application, 5-8 adult aphids were placed on the artificial membrane inside the microtiter plate wells. The aphids were then allowed to suck on the treated aphid diet and incubated at 23±1° C. 50±5% RH for 3 days. Aphid mortality and fecundity was then visually assessed.
# [4] = system: boll weevil (Anthonomus grandis); experiment: Test 4: control of boll weevil, 24-well microtiter plates with insect diet and eggs; conditions: egg and larval mortality after 5 days
# Description: For evaluating control of boll weevil (Anthonomus grandis) the test unit consisted of 24-well-microtiter plates containing an insect diet and 20-30 A. grandis eggs.
# The compounds or mixtures were formulated using a solution containing 75% water and 25% DMSO. Different concentrations of formulated compounds or mixtures were sprayed onto the insect diet at 20 μl, using a custom-built micro atomizer, at two replications.
# as §1
# After application, microtiter plates were incubated at 23±1° C., 50±5% RH for 5 days. Egg and larval mortality was then visually assessed. For the mixture tested the results are listed in tables 4.1 to 4.4, wherein the * marks synergistic control effect according to Colby's equation.
# [5] = system: tobacco budworm (Plutella xylostella); experiment: Test 5: control of Plutella xylostella, 96-well microtiter plates with insect diet and eggs; conditions: egg and larval mortality after 5 days
# Description: For evaluating control of […] (Plutella xylostella) the test unit consisted of 96-well-microtiter plates containing an insect diet and 15-25 P. xylostella eggs.
# The compounds or mixtures were formulated using a solution containing 75% water and 25% DMSO. Different concentrations of formulated compounds or mixtures were sprayed onto the insect diet at 5 μl, using a custom-built micro atomizer, at two replications.
# as §1
# After application, microtiter plates were incubated at 28±1° C., 80±5% RH for 5 days. Egg and larval mortality was then visually assessed.
# [6] = Heliothis virescens, 120 h, 0.4 ppm, egg and larval mortality after 5 days, read-out: Average control observed (%)
# [7] = Aedes aegypti, 48 h, 0.4 ppm, larval mortality after 2 days, read-out: Average control observed (%)
# [8] = Aedes aegypti, 48 h, 4 ppm, larval mortality after 2 days, read-out: Average control observed (%)
# [9] = 2 ppm, larval mortality after 2 days
# [10] = 0.4 ppm, larval mortality after 2 days
compound,measurement,setting,value
"Cc1c(COC(=O)[C@@H]2[C@H](/C=C(\Cl)C(F)(F)F)C2(C)C)cccc1-c1ccccc1 (racemic) [Bifenthrin (2b), bifenthrin]",pest or weed control at 0.4 ppm,[1]; [6],0%
same,pest or weed control at 0.4 ppm,[2]; [7],25%
"C/C(=N\C#N)N(C)Cc1ccc(Cl)nc1 [Acetamiprid (3d), acetamiprid]",pest or weed control at 4 ppm,[2]; [8],0%
"CN(C(=O)c1ccccc1)c1cccc(C(=O)Nc2c(Br)cc(C(F)(C(F)(F)F)C(F)(F)F)cc2C(F)(F)F)c1F [Broflanilide (16), broflanilide]",Average control observed (%),[2]; [9],12.5%
"CNC(=O)c1cc(Cl)cc(C)c1NC(=O)c1cc(Br)nn1-c1ncccc1Cl [Chlorantraniliprole (14b), Chlorantraniliprole]",Average control observed (%),[3]; 0.4 ppm,0%
"CCOCn1c(-c2ccc(Cl)cc2)c(C#N)c(Br)c1C(F)(F)F [Chlorfenapyr (8), chlorfenapyr]",pest or weed control at 0.8 ppm,"[2]; Aedes aegypti, 48 h, 0.8 ppm, larval mortality after 2 days, read-out: Average control observed (%)",0%
"CN/C(=N\[N+](=O)[O-])NCc1cnc(Cl)s1 [Clothianidin (3c), clothianidin]",pest or weed control at 1 ppm,"[2]; Aedes aegypti, 48 h, 1 ppm, larval mortality after 2 days, read-out: Average control observed (%)",0%
"O=C(NCc1ncccn1)c1ccc(C2=NO[C@@](c3cc(Cl)c(F)c(Cl)c3)(C(F)(F)F)C2)c2ccncc12 [Compound I-1, 5-[(5S)-5-(3,5-dichloro-4-fluoro-phenyl)-5-(trifluoromethyl)-4H-isoxazol-3-yl]-N-(pyrimidin-2-ylmethyl)isoquinoline-8-carboxamide]",pest or weed control at 0.009 ppm,"[1]; Heliothis virescens, 120 h, 0.009 ppm, egg and larval mortality after 5 days, read-out: Average control observed (%)",0%
same,pest or weed control at 0.048 ppm,"[1]; Heliothis virescens, 120 h, 0.048 ppm, egg and larval mortality after 5 days, read-out: Average control observed (%)",0%
same,pest or weed control at 0.24 ppm,"[1]; Heliothis virescens, 120 h, 0.24 ppm, egg and larval mortality after 5 days, read-out: Average control observed (%)",0%
same,pest or weed control at 0.009 ppm,"[2]; Aedes aegypti, 48 h, 0.009 ppm, larval mortality after 2 days, read-out: Average control observed (%)",0%
same,pest or weed control at 0.048 ppm,"[2]; Aedes aegypti, 48 h, 0.048 ppm, larval mortality after 2 days, read-out: Average control observed (%)",0%
same,pest or weed control at 0.24 ppm,"[2]; Aedes aegypti, 48 h, 0.24 ppm, larval mortality after 2 days, read-out: Average control observed (%)",0%
same,Average control observed (%),[3]; 0.009 ppm,0%
same,Average control observed (%),[3]; 0.24 ppm,0%
same,Average control observed (%),[4]; 0.048 ppm,0%
same,Average control observed (%),[4]; 0.24 ppm,0%
same,Average control observed (%),[5]; 0.05 ppm,0%
"CC1(C)C(C=C(Cl)Cl)C1C(=O)OC(C#N)c1ccc(F)c(Oc2ccccc2)c1 (centres unmarked) [Cyfluthrin (2c), cyfluthrin]",Average control observed (%),[2]; [10],0%
"CCN(C(=O)c1cnn(C(C)C(C)C)c1C)c1ccnnc1 (centres unmarked) [Dimpropyridaz (17b), dimpropyridaz]",Average control observed (%),[3]; 2 ppm,0%
"CN/C(=N/CC1CCOC1)N[N+](=O)[O-] (centres unmarked) [Dinotefuran (3f), dinotefuran]",pest or weed control at 20 ppm,"[1]; Heliothis virescens, 120 h, 20 ppm, egg and larval mortality after 5 days, read-out: Average control observed (%)",0%
same,pest or weed control at 4 ppm,"[2]; Aedes aegypti, 48 h, read-out: Average control observed (%)",0%
"N#Cc1nn(-c2c(Cl)cc(C(F)(F)F)cc2Cl)c(N)c1[S+]([O-])C(F)(F)F (centres unmarked) [Fipronil (1b), fipronil]",pest or weed control at 0.08 ppm,"[1]; Heliothis virescens, 120 h, read-out: Average control observed (%)",0%
same,pest or weed control at 0.4 ppm,[2]; [7],0%
same,Average control observed (%),[4]; 0.4 ppm,12.5%
"Cc1cc(C(F)(C(F)(F)F)C(F)(F)F)ccc1NC(=O)c1cccc(I)c1C(=O)NC(C)(C)CS(C)(=O)=O [Flubendiamide (14a), Flubendiamide]",pest or weed control at 0.4 ppm,[1]; [6],12.5%
"O=C1C=C(N(Cc2ccc(Cl)nc2)CC(F)F)CO1 [Flupyradifurone (3i), flupyradifurone]",Average control observed (%),[3]; 2 ppm,12.5%
"O=[N+]([O-])NC1=NCCN1Cc1ccc(Cl)nc1 [Imidacloprid (3b), imidacloprid]",Average control observed (%),[3]; 0.8 ppm,0%
"COC(=O)N(C(=O)N1CO[C@@]2(C(=O)OC)Cc3cc(Cl)ccc3C2=N1)c1ccc(OC(F)(F)F)cc1 [Indoxacarb (12), indoxacarb]",Average control observed (%),"[1]; 0.4 ppm, egg and larval mortality after 5 days",0%
same,Average control observed (%),"[2]; 0.08 ppm, larval mortality after 2 days",0%
same,Average control observed (%),[2]; [10],0%
same,Average control observed (%),[2]; [9],0%
same,Average control observed (%),[4]; 0.08 ppm,25%
"COc1cccc(C(=O)NN(C(=O)c2cc(C)cc(C)c2)C(C)(C)C)c1C [Methoxyfenozide (11), methoxyfenozide]",pest or weed control at 0.4 ppm,[1]; [6],37.5%
"CCOC(=O)OC1=C(c2cc(C)ccc2C)C(=O)N[C@]12CC[C@@H](OC)CC2 [Spirotetramat (13a), spirotetramat]",pest or weed control at 80 ppm,"[2]; Aedes aegypti, 48 h, 80 ppm, larval mortality after 2 days, read-out: Average control observed (%)",0%
"O=C(NC(=O)c1c(F)cccc1F)Nc1cc(Cl)c(F)c(Cl)c1F [Teflubenzuron (9), teflubenzuron]",Average control observed (%),[4]; 0.1 ppm,12.5%
"N#C/N=C1\SCCN1Cc1ccc(Cl)nc1 [Thiacloprid (3e), thiacloprid]",pest or weed control at 4 ppm,[2]; [8],50%
"CN1COCN(Cc2cnc(Cl)s2)/C1=N\[N+](=O)[O-] [Thiamethoxam (3a), thiamethoxam]",pest or weed control at 0.03 ppm,"[1]; Heliothis virescens, 120 h, 0.03 ppm, egg and larval mortality after 5 days, read-out: Average control observed (%)",0%
same,Average control observed (%),[4]; 0.03 ppm,0%
same,Average control observed (%),[5]; 0.03 ppm,0%
"CC1(C)C(C=C(Cl)Cl)C1C(=O)OC(C#N)c1cccc(Oc2ccccc2)c1 (stereo not drawn) [alpha-cypermethrin (2a), alpha-cypermethrin]",pest or weed control at 0.4 ppm,[1]; [6],25%
"CC1(C)[C@H](/C=C(\Cl)C(F)(F)F)[C@@H]1C(=O)O[C@@H](C#N)c1cccc(Oc2ccccc2)c1 [lamda-cyhalothrin (2e), lamda-cyhalothrin]",Average control observed (%),"[1]; 0.16 ppm, egg and larval mortality after 5 days",50%
same,Average control observed (%),"[2]; 0.16 ppm, larval mortality after 2 days",0%
spinetoram [Spinetoram (4b)],Average control observed (%),"[1]; 0.2 ppm, egg and larval mortality after 5 days",0%
